Assay results published in patent US7183283B2, “Piperidinyl-alkylamino-pyridazinone derivatives, a process for the preparation thereof and pharmaceutical compositions containing said compounds” (Egis Gyogyszergyar RT., priority 2002, dated 2007).

Tests used:
[1] = system: mice; test: Inhibition of spontaneous motor activity (sedative effect); type: in vivo
Experimental: The effect on spontaneous motor activity was investigated according to Borsy and co-workers [Borsy, J. et al, Arch. Int. Pharmacodyn., 124, 180–190 (1960)] in a ten channel Dews instrument, with 1—1 animal in each channel. Animals were placed into the instrument 60 min after per os treatment with either vehicle or test compound, and interruptions of infrared beams were recorded for 30 min. […] Diazepam [7-chloro-1,3-dihydro-1-methyl-5-phenyl-2H-1,4-benzodiazepine-2-one] was used as reference compound.

[2] = system: rats; test: Elevated plus-maze (anxiolytic effect); type: in vivo, rat; settings: male Sprague-Dawley rats, po, tested 60 min after treatment, 5 min test time
Description: Tests have been performed as described by Pellow and co-workers [J. Neurosci. Methods, 14, 149 (1985)]. A wooden cross, 15 cm wide with 100 cm long arms was used for the experiments. The sides and ends of two opposite arms of the cross were equipped with 40 cm high walls, however, the arms were open to the 15×15 cm central area (closed arms). The two other opposite arms were not encircled by walls (open arms).
Male Sprague-Dawley rats weighing 200–220 g were used for the experiments. The animals were placed in the central area of the equipment 60 min after treatment and the following four parameters have been observed for the 5 min test time: • time spent in the open arms, • time spent in the closed arms, • number of entries into the open arms, • number of entries into the closed arms.
The effect was expressed as percent increase in either the time (measured in sec) spent in the open arms or number of entries into the open arms. MEDs (minimal effective dose) were determined for each compound regarding the time spent in the open arms. Results are summarized in Table I. Buspiron [8-[4-[4-(2-pyrimidinyl)-1-piperazinyl]-butyl]-8-azaspiro[4,5]decan-7,9-dion] was used as reference compound.

[3] = mice, per os, placed in Dews instrument 60 min after treatment, recorded for 30 min

Compound: CN1C(=O)CN=C(c2ccccc2)c2cc(Cl)ccc21 [Diazepam, 7-chloro-1,3-dihydro-1-methyl-5-phenyl-2H-1,4-benzodiazepine-2-one, reference compound]
- ID50 (50 percent inhibitory dose), spontaneous motor activity [1, 3]: 7.0 mg/kg po

Compound: Cn1ncc(NCCN2CCC(C(=O)c3ccc(F)cc3O)CC2)cc1=O [Example 1, 5-{2-[4-[1-(4-fluoro-2-hydroxy-phenyl)-methanoyl]-piperidine-1-yl]-ethylamino}-2-methyl-2H-pyridazine-3-one]
- MED (minimal effective dose) regarding the time spent in the open arms [2]: ≦0.03 mg/kg po
- melting point: 200 to 202 °C
- ID50 (50 percent inhibitory dose), spontaneous motor activity ([1]; mouse, in vivo, 60 min): >100 mg/kg po

Compound: O=C1CC2(CCCC2)CC(=O)N1CCCCN1CCN(c2ncccn2)CC1 [Buspiron, 8-[4-[4-(2-pyrimidinyl)-1-piperazinyl]-butyl]-8-azaspiro[4,5]decan-7,9-dion, reference compound]
- MED (minimal effective dose) regarding the time spent in the open arms [2]: 3.0 mg/kg po

Compound: CC(CNc1cnn(C)c(=O)c1)N1CCC(C(=O)c2ccc(F)cc2O)CC1 (stereo not shown) [Example 3, 5-{2-[4-[1-(4-fluoro-2-hydroxy-phenyl)-methanoyl]-piperidine-1-yl]-propylamino}-2-methyl-2H-pyridazine-3-one]
- MED (minimal effective dose) regarding the time spent in the open arms [2]: ≦0.3 mg/kg po
- melting point: 199 to 201 °C
- ID50 (50 percent inhibitory dose), spontaneous motor activity ([1]; mouse, in vivo, 60 min): >100 mg/kg po

Compound: Cl.Cl.O=C(c1ccc(F)cc1O)C1CCN(CCNc2cn[nH]c(=O)c2)CC1 [Example 2, 5-{2-[4-[1-(4-fluoro-2-hydroxy-phenyl)-methanoyl]-piperidine-1-yl]-ethylamino}-2H-piridazine-3-one-dihydrochloride]
- MED (minimal effective dose) regarding the time spent in the open arms [2]: ≦0.3 mg/kg po
- ID50 (50 percent inhibitory dose), spontaneous motor activity [1, 3]: >100 mg/kg po
